Experiments:
Details in all cases: 1 µM, ATP at Km
[1] = target: RSE (Homo sapiens, UniProt Q06418)
[2] = target: MRCKALPHA (Homo sapiens, UniProt Q5VT25)
[3] = target: MKK6 (Homo sapiens, UniProt P52564)
[4] = target: IGF-1R, ACTIVATED (Homo sapiens, UniProt P08069)
[5] = target: SRPK2 (Homo sapiens, UniProt P78362)
[6] = target: PAK2 (Homo sapiens, UniProt Q13177)
[7] = target: CDK5/P35 (Homo sapiens, UniProt Q00535)
[8] = target: ALK (Homo sapiens, UniProt Q9UM73)
[9] = target: TGFBR1 (Homo sapiens, UniProt P36897)
[10] = target: MEK1 (Homo sapiens, UniProt Q02750)
[11] = target: HIPK1 (Homo sapiens, UniProt Q86Z02)
[12] = target: MLK1 (Homo sapiens, UniProt P80192)
[13] = target: PI3K DELTA (Homo sapiens, UniProt O00329)
[14] = target: PRKX (Homo sapiens, UniProt P51817)
[15] = target: AXL (Homo sapiens, UniProt P30530)
[16] = target: EPHA5 (Homo sapiens, UniProt P54756)
[17] = target: PKCBETAI (Homo sapiens, UniProt P05771)
[18] = target: CLK2 (Homo sapiens, UniProt P49760)
[19] = target: PI3K GAMMA (Homo sapiens, UniProt P48736)
[20] = target: TSSK2 (Homo sapiens, UniProt Q96PF2)
[21] = target: EPHA3 (Homo sapiens, UniProt P29320)
[22] = target: MRCKBETA (Homo sapiens, UniProt Q9Y5S2)
[23] = target: CDK6/CYCLIND3 (Homo sapiens, UniProt Q00534)
[24] = target: EGFR (Homo sapiens, UniProt P00533)
[25] = target: MET (Homo sapiens, UniProt P08581)
[26] = target: NEK7 (Homo sapiens, UniProt Q8TDX7)
[27] = target: MST2 (Homo sapiens, UniProt Q13188)
[28] = target: MSK2 (Homo sapiens, UniProt O75676)
[29] = target: PKD2 (Homo sapiens, UniProt Q9BZL6)
[30] = target: NEK3 (Homo sapiens, UniProt P51956)
[31] = target: CDK2/CYCLINA (Homo sapiens, UniProt P24941)
[32] = target: JNK1ALPHA1 (Homo sapiens, UniProt P45983)
[33] = target: MELK (Homo sapiens, UniProt Q14680)
[34] = target: PIP4K2A (Homo sapiens, UniProt P48426)
[35] = target: BRSK2 (Homo sapiens, UniProt Q8IWQ3)
[36] = target: JAK2 (Homo sapiens, UniProt O60674)
[37] = target: TAO3 (Homo sapiens, UniProt Q9H2K8)
[38] = target: CK1GAMMA1 (Homo sapiens, UniProt Q9HCP0)
[39] = target: CDK1/CYCLINB (Homo sapiens, UniProt P06493)
[40] = target: ERBB4 (Homo sapiens, UniProt Q15303)
[41] = target: AURKC (Homo sapiens, UniProt Q9UQB9)
[42] = target: IR, ACTIVATED (Homo sapiens, UniProt P06213)
[43] = target: PIM-2 (Homo sapiens, UniProt Q9P1W9)
[44] = target: […] (Homo sapiens, UniProt Q8IU85)

Chain of SRPK2 (P78362 whole entry): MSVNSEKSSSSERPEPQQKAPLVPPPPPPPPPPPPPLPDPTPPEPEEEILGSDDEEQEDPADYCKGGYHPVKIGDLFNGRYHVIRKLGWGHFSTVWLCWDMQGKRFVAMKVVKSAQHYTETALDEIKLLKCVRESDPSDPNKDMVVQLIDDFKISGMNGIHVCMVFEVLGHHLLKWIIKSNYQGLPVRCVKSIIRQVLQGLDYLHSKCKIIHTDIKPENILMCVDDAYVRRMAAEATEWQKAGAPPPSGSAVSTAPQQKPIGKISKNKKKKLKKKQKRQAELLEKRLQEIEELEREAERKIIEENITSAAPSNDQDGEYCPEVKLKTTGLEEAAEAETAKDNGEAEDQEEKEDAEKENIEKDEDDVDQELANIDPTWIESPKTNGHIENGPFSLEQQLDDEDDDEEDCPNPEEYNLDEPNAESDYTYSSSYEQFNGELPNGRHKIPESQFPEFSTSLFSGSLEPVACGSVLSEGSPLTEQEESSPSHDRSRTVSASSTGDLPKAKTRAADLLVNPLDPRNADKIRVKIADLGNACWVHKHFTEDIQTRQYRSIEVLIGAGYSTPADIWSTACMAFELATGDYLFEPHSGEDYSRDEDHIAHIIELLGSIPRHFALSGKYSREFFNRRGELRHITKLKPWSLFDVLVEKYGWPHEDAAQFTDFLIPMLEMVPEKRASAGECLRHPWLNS
Chain of MLK1 (P80192 whole entry): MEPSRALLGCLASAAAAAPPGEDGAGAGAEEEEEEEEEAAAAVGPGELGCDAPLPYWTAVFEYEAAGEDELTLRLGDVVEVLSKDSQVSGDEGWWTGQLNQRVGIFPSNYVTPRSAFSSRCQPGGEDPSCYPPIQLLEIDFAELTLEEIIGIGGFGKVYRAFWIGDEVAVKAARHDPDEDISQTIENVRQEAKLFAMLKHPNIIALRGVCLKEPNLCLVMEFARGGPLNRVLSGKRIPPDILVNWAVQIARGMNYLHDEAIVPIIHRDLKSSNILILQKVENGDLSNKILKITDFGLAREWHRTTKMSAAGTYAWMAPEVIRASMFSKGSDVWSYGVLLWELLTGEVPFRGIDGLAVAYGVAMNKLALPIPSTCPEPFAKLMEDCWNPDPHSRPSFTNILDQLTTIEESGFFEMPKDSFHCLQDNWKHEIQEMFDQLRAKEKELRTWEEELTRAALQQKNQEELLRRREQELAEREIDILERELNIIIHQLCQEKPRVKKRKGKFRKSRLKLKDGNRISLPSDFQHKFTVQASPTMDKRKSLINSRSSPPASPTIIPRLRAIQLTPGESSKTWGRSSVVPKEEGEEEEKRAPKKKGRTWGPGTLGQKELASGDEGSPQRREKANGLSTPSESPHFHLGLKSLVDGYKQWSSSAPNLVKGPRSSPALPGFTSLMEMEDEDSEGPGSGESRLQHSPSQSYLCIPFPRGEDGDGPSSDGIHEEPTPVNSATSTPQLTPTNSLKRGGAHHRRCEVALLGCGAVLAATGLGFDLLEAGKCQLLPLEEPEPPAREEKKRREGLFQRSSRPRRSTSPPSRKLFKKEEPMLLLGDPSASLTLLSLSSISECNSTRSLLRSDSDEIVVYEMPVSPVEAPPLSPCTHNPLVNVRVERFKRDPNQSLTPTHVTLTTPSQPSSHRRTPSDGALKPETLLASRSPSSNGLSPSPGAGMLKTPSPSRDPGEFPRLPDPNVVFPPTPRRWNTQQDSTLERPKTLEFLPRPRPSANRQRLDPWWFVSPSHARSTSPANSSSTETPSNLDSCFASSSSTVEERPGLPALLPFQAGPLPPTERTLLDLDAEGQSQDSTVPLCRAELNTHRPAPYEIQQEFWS
Chain of TAO3 (Q9H2K8 whole entry): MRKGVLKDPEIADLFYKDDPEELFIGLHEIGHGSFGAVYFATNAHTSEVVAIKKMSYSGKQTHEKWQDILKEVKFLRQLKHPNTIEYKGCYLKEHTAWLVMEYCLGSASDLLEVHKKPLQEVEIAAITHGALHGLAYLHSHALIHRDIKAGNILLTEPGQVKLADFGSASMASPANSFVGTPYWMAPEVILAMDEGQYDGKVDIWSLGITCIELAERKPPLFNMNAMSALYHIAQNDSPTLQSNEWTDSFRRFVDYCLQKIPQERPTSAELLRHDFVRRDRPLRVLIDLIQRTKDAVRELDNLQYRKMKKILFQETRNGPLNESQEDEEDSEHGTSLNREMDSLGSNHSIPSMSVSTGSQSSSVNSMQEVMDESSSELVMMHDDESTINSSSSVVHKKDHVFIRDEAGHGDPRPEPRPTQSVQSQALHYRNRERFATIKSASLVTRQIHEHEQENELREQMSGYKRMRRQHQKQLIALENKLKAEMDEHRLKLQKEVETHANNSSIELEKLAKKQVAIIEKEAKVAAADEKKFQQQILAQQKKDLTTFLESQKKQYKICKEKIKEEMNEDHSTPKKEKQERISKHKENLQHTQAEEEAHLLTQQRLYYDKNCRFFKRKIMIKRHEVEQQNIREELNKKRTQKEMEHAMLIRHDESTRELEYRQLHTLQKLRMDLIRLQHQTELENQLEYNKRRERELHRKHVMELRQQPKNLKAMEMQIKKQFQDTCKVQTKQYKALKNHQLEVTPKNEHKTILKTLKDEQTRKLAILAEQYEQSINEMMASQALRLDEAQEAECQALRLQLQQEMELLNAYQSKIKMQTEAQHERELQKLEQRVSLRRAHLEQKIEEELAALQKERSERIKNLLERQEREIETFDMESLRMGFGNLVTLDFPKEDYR
Chain of RSE (Q06418 41-890): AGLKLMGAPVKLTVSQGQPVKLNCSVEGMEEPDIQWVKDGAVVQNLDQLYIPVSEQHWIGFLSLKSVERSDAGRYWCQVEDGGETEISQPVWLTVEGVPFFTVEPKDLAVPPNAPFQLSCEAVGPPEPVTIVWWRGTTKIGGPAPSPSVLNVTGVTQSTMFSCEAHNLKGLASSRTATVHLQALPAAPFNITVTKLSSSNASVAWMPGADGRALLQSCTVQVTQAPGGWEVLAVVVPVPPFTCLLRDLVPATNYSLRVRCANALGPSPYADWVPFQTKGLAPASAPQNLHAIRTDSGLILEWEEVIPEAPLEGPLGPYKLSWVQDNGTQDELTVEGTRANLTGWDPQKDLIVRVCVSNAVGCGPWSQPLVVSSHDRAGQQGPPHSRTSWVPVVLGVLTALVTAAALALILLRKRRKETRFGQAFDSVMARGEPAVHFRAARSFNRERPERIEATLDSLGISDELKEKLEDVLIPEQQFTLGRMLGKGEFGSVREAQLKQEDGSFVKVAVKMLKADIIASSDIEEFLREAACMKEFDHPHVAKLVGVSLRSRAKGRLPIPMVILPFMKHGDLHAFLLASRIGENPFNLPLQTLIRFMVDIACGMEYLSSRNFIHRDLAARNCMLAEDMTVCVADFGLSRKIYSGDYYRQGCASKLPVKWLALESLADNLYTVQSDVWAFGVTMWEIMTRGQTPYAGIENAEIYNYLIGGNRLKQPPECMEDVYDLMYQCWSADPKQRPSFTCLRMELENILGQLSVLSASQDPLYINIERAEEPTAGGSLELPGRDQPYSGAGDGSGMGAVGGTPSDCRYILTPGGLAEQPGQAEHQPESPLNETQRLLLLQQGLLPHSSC
Chain of CDK6/CYCLIND3 (Q00534 whole entry): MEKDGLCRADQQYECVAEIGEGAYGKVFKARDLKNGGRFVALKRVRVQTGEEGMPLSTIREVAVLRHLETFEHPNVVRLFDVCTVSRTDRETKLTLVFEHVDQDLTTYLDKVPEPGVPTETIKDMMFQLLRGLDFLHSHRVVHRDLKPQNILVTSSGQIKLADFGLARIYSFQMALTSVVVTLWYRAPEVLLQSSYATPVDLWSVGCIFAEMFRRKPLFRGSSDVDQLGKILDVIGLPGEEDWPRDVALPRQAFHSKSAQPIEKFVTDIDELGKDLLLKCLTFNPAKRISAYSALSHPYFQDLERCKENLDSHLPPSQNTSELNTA
Chain of CDK6/CYCLIND3 (P30281 whole entry partner): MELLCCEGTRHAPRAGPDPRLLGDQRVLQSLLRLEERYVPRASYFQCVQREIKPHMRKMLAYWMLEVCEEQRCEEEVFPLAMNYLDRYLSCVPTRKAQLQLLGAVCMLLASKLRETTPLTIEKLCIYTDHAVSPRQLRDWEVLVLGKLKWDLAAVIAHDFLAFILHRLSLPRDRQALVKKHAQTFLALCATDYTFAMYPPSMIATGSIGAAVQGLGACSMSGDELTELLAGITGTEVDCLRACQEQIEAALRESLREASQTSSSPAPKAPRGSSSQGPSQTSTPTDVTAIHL
Chain of MEK1 (Q02750 whole entry): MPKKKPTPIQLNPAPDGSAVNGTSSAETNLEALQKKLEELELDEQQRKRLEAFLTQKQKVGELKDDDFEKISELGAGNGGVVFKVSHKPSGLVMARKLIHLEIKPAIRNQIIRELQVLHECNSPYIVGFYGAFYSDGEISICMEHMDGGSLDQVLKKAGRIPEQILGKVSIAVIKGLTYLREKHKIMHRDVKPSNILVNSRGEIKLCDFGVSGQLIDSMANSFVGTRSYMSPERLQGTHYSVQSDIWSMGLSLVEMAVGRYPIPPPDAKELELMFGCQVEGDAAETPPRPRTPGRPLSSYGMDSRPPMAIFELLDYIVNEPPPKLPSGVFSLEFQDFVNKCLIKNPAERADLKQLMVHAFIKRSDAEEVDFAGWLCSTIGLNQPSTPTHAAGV
Chain of NEK7 (Q8TDX7 whole entry): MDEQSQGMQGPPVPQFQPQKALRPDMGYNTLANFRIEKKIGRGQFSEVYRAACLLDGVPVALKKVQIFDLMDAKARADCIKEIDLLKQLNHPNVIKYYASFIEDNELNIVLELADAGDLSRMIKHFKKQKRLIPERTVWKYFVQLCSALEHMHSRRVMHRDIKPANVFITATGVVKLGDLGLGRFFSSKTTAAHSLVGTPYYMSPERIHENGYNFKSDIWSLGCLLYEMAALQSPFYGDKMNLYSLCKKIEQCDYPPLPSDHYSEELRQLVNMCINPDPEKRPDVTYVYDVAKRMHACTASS

COC1CN(C(=O)c2ccc3c(N)ncc(-c4ccc(-c5cnn(C)c5)cc4)c3n2)C1 [Compound 51]
percentage effect [1]: 17%
percentage effect [2]: 2%
percentage effect [3]: -4%
percentage effect [4]: -18%
percentage effect [5]: 0%
percentage effect [6]: -17%
percentage effect [7]: 8%
percentage effect [8]: -20%
percentage effect [9]: -5%
percentage effect [10]: -18%
percentage effect [11]: 5%
percentage effect [12]: -3%
percentage effect [13]: -10%
percentage effect [14]: 43%
percentage effect [15]: 27%
percentage effect [16]: -1%
percentage effect [17]: -1%
percentage effect [18]: -18%
percentage effect [19]: -18%
percentage effect [20]: 15%
percentage effect [21]: 10%
percentage effect [22]: -4%
percentage effect [23]: -10%
percentage effect [24]: -45%
percentage effect [25]: 22%
percentage effect [26]: -6%
percentage effect [27]: -5%
percentage effect [28]: 7%
percentage effect [29]: -1%
percentage effect [30]: -14%
percentage effect [31]: 5%
percentage effect [32]: -4%
percentage effect [33]: -10%
percentage effect [34]: -5%
percentage effect [35]: 1%
percentage effect [36]: -2%
percentage effect [37]: -16%
percentage effect [38]: -8%
percentage effect [39]: 1%
percentage effect [40]: -8%
percentage effect [41]: 6%
percentage effect [42]: -15%
percentage effect [43]: 16%
percentage effect [44]: -3%

COC1CN(C(=O)c2ccc3c(N)ncc(-c4ccc(-c5cnn(C)c5)cc4)c3c2)C1 [Compound 59]
percentage effect [1]: -6%
percentage effect [2]: 0%
percentage effect [3]: -14%
percentage effect [4]: -10%
percentage effect [5]: -2%
percentage effect [6]: -18%
percentage effect [7]: -2%
percentage effect [8]: -30%
percentage effect [9]: -4%
percentage effect [10]: -9%
percentage effect [11]: 0%
percentage effect [12]: -30%
percentage effect [13]: -10%
percentage effect [14]: 6%
percentage effect [15]: -12%
percentage effect [16]: 3%
percentage effect [17]: 15%
percentage effect [18]: -3%
percentage effect [19]: -7%
percentage effect [20]: -26%
percentage effect [21]: 10%
percentage effect [22]: 13%
percentage effect [23]: -14%
percentage effect [24]: 14%
percentage effect [25]: -19%
percentage effect [26]: -26%
percentage effect [27]: -14%
percentage effect [28]: -12%
percentage effect [29]: -5%
percentage effect [30]: -2%
percentage effect [31]: -5%
percentage effect [32]: -11%
percentage effect [33]: -8%
percentage effect [34]: 1%
percentage effect [35]: 5%
percentage effect [36]: 3%
percentage effect [37]: -6%
percentage effect [38]: -8%
percentage effect [39]: -5%
percentage effect [40]: -34%
percentage effect [41]: -10%
percentage effect [42]: -2%
percentage effect [43]: 14%
percentage effect [44]: 5%
